Legend:
[1] = tested on: LDL receptor expression in HepG2 cells; assay: Increase of LDL receptor expression in HepG2 cells, western-blot analysis; assay type: cell-based; settings: Homo sapiens, minimum concentration at which a maximal induction of LDL receptor levels was observed
Experimental: Compounds and compositions of a particular embodiment of the invention are capable of specifically regulating LDL receptor gene expression. Compounds may be evaluated in vitro for their ability to increase LDL receptor expression using western-blot analysis, for example, as described by Tam et al. (J. Biol. Chem. 1991, 266, 16764). Preferred such compounds and compositions provide ECmax of less than about 50 μM, preferably less than about 5 μM, more preferably less than about 0.5 μM, more preferably less than about 0.05 μM, and most preferably less than about 0.005 μM in this assay (see, e.g. Example 28 herein). Established animal models to evaluate hypocholesterolemic effects of compounds are known in the art. For example, compounds disclosed herein are shown to lower cholesterol levels in hamsters fed a high-cholesterol diet, using a protocol simllar to that described by Spady et al. (J. Clin. Invest. 1988, 81, 300), Evans et al. (J. Lipid Res. 1994, 35, 1634), and Lin et al (J. Med. Chem. 1995, 38, 277).
Certain compounds were evaluated for their ability to increase LDL receptor expression in HepG2 cells using western-blot analysis as described by Tam et al., (J. Biol. Chem., 1991, 266, 16764). […] In all cases, the level of induction was greater than that observed under lipid-free conditions (activated system) in the absence of the test compounds.

HeLa cells = assay: Inhibition of in vitro growth of HeLa cells (Alamar Blue uptake); assay type: cell-based; settings: Homo sapiens; concentration required to inhibit by 50% the uptake of Alamar Blue by HeLa cell cultures
Description: Compounds and compositions of a particular embodiment of the invention display specific toxicity to various types of cells, preferably exerting their cytotoxic effects by interacting with cellular tubulin, preferably covalently and irreversibly. Compounds and compositions may be evaluated in vitro for their ability to inhibit cell grow, for example, as described by Ahmed et al. (J. Immunol. Methods 1994, 170, 211). […] Established animal models to evaluate antiproliferative effects of compounds are known in the art. For example, compounds can be evaluated for their ability to inhibit the growth of human tumors grafted into immunodeficient mice using methodology similar to that described by Rygaard and Poylsen (Acta Pathol. Microbiol. Scand. 1969, 77, 758) and Giovanella and Fogh (Adv. Cancer Res. 1985, 44, 69).
Compounds were evaluated for their ability to inhibit in vitro the growth of HeLa cells, an immortal cell line derived from a human cervical carcinoma commonly used to evaluate the cytotoxicity of potential therapeutic agents. The following data reflect the cytotoxicity of selected examples of the present invention. The values given represent the concentration of test compound required to inhibit by 50% the uptake of Alamar Blue (Biosource International, Camarillo, Calif.) by HeLA cell cultures, which correlates directly with the overall levels of cellular metabolism in the culture, and is generally accepted as an appropriate′marker of cell growth. The test was conducted according to the method of Ahmed et al. (J. Immunol. Methods 1994, 170, 211).

| Compound | EC (max) [1] | IC50 (HeLa cells) |
| --- | --- | --- |
| COc1ccc(NS(=O)(=O)c2ccc(F)c([N+](=O)[O-])c2)cc1 [Example 1, 4-Fluoro-1-[(4-methoxyphenyl)aminosulfonyl]-3-nitrobenzene] | 5 µM |  |
| COc1ccc(NS(=O)(=O)c2ccc(F)c([N+](=O)[O-])c2)cc1O [Example 2, 4-Fluoro-1-[(3-hydroxy-4-methoxyphenyl)aminosulfonyl]-3-nitrobenzene] | 1.5 µM | 150 nM |
| COc1ccc(NS(=O)(=O)c2c(F)c(F)c(F)c(F)c2Br)cc1O [Example 3, 1-Bromo-3,4,5,6-tetrafluoro-2-[(3-hydroxy-4-methoxyphenyl)aminosulfonyl]benzene] | 0.15 µM | 50 nM |
| COc1ccc(NS(=O)(=O)c2c(F)c(F)c(F)c(F)c2Br)cc1 [Example 4, 1-Bromo-3,4,5,6-tetrafluoro-2-[(4-methoxyphenyl)aminosulfonyl]benzene] | 0.5 µM | 150 nM |
| COc1ccc(NS(=O)(=O)c2c(F)c(F)c(F)c(Br)c2F)cc1 [Example 5] | 0.5 µM | 150 nM |
| COc1ccc(NS(=O)(=O)c2c(F)c(F)c(Br)c(F)c2F)cc1 [Example 6, 1-Bromo-2,3,5,6-tetrafluoro-4-[(4-methoxyphenyl)aminosulfonyl]benzene] | 50 µM | 5000 nM |
| COc1ccc(NS(=O)(=O)c2c(F)c(F)c(Cl)c(F)c2F)cc1 [Example 7, 1-Chloro-2,3,5,6-tetrafluoro-4-[(4-methoxyphenyl)aminosulfonyl]benzene] | 50 µM | 1500 nM |
| COc1ccc(NS(=O)(=O)c2c(F)c(Cl)c(F)c(Cl)c2F)cc1 [Example 8, 1,3-Dichloro-2,4,6-trifluoro-5-[(4-methoxyphenyl)aminosulfony]benzene] | 0.5 µM | 150 nM |
| COc1ccc(NS(=O)(=O)c2c(F)c(Cl)c(F)c(Cl)c2F)cc1O [Example 9, 1,3-Dichloro-2,4,6-trifluoro-5-[(3-hydroxy-4-methoxyphenyl)aminosulfonyl]benzene] | 0.15 µM | 50 nM |
| COc1ccc(NS(=O)(=O)c2cc(Br)c(F)c(F)c2F)cc1 [Example 10, 1-Bromo-2,3,4-trifluoro-5-[(4-methoxyphenyl)aminosulfonyl]benzene] | 1.5 µM | 500 nM |
| COc1ccc(NS(=O)(=O)c2cc(F)c(F)c(F)c2Br)cc1 [Example 11, 1-Bromo-4,5,6-trifluoro-2-[(4-methoxyphenyl)aminosulfonyl]benzene] | 1.5 µM | 500 nM |
| COc1ccc(NS(=O)(=O)c2ccc(F)c(F)c2F)cc1O [Example 17, 1-[(3-Hydroxy-4-methoxyphenyl)aminosulfonyl]-2,3,4-trifluorobenzene] |  | 1500 nM |
| COc1ccc(NS(=O)(=O)c2c(F)cc(F)c(F)c2F)cc1 [Example 19, 2,3,4,6-Tetrafluoro-1-[(4-methoxyphenyl)aminosulfonyl]benzene] | 15 µM | 5000 nM |
| COc1ccc(NS(=O)(=O)c2cc(F)c(F)c(F)c2F)cc1 [Example 20, 2,3,4,5-Tetrafluoro-1-[(4-methoxyphenyl)aminosulfonyl]benzene] | 1.5 µM | 500 nM |
| COc1ccc(NS(=O)(=O)c2cc(F)c(F)c(F)c2F)cc1O [Example 21, 2,3,4,5-Tetrafluoro-1-[(3-hydroxy-4-methoxyphenyl)aminosulfonyl]benzene] | 0.5 µM | 150 nM |
| COc1ccc(NS(=O)(=O)c2cc(F)c(F)c(F)c2)cc1 [Example 22, 3,4,5-Trifluoro-1-[(4-methoxyphenyl)aminosulfonyl]benzene] | 5 µM | 5000 nM |
| COc1ccc(NS(=O)(=O)c2cc(F)c(F)c(F)c2)cc1O [Example 23, 3,4,5-Trifluoro-1-[(3-hydroxy-4-methoxyphenyl)aminosulfonyl]benzene] |  | 1500 nM |
| COc1ccc(CS(=O)(=O)c2c(F)c(F)c(F)c(F)c2F)cc1 [Example 24, 4-Methoxybenzyl Pentafluorophenyl Sulfone] | 1.5 µM | 5000 nM |
